Holding throughout (assay type): cell-based
The test system of data set [1] is DU-145 (androgen-insensitive) prostate cancer cell line. The experiment in a line: MTT cytotoxicity test, DU-145. Conditions: 24 h, mean ± SD, read-out: IC50 determined by MTT cytotoxicity test. The procedure:
(§1) 3-(4,5-Dimethylthiazol-2-yl)-2,5-diphenyltetrazolium bromide (MTT) was from Serva Electrophoresis (Heidelberg, Germany). Monoclonal mouse anti-bromodeoxyuridine (BrdU) intibody was obtained from DakoCytomation (Glostrup, Denmark). Calcein AM was obtained from PAA Laboratories GmbH (Pasching, Austria). […] All other cells were cultured in DMEM medium (Sigma, MO, USA). All used media were supplemented with 10% heat-inactivated fetal bovine serum, 2 mmol/L L-glutamine, 1% penicillin/streptomycin. The cell lines were maintained under standard cell culture conditions at 37° C. and 5% CO2 in a humid environment. Cells were subcultured twice or three times a week using the standard trypsinization procedure (Sigma, USA).
(§2) Cell viability in this case was assessed by 3-(4,5-dimethylthiozol-2-yl)-2,5-diphenyltetrazolium bromide (MTT) to determine IC50 concentrations of studied agents as described previously. […] The cells (70% to 80% confluent) were treated with brassinosteroids for 6, 12 and 24 h in cell culture medium. Cells that were used as controls were incubated with the maximum used amount of steroid diluent DMSO only. […] The absorbance was read using an ELISA reader Labsystem Multiscan RC at 570 nm. The viability of treated cells was related to the viability of control cells that represented 100% viability. […]
In general terms: Tetrazolium assays rely on reduction of a dye to a coloured formazan, in cell work by metabolically active cells.

Data set [2] concerns LNCaP (androgen-sensitive) prostate cancer cell line. The experiment in a line: MTT cytotoxicity test, LNCaP. Conditions: 24 h, mean ± SD, read-out: IC50 determined by MTT cytotoxicity test. The procedure: as §1, §2
Data set [3] deals with LNCaP cells. Nature of the data set: BrdU incorporation assay, LNCaP. The procedure:
To analyze if the inhibition in cell viability was due to decreased cell proliferation, we measured DNA synthesis in the presence of BRs. The effect of brassinosteroids 9 or 6 on cell proliferation and DNA replication of the cancer cells was measured by BrdU incorporation assay. This immunostaining was based on nuclear incorporation of bromodeoxyuridine (BrdU) into DNA in place of thymidine during the S-phase of cell cycle detected by anti-specific-BrdU antibody following membrane permeabilization as described previously (Gratzner, Science. 1982, 218, 474-475). […] The BrdU reagent (0.1 mM; Sigma, MO, USA) was added in culture medium with cells for 4 h in a CO2 incubator at 37° C. After incubation the cells were washed three times with PBS and fixed with cold acetone-methanol (1:1, v/v) for 10 min. The cells were denaturated by HCl (1:5; Lachema, Czech Republic) and incubated with anti-specific-BrdU antibody (diluted 1:100 in PBS; clone Bu20a, DakoCytomation, Denmark) for 60 min in the dark. The cells were then washed three times in PBS (10 mM, pH 7.4) and incubated with goat anti-mouse fluorescein isothiocyanate (FITC)-labeled secondary antibody (Sigma, MO, USA) for 60 min in the dark. The cells were then washed three times in PBS and incubated with DAPI (50 μg/mL; Sigma, MO, USA) for 10 min in the dark. The coverslips with cells were washed in deionized water and mounted on glass slides, using the hydrophilic medium Mowiol (Calbiochem, Calif., USA) in glycerol-PBS (1:3, v/v) for fluorescence. Cells were visualized using microscopy and those incorporating BrdU (S phase cells) were counted in at least 25 fields and compared with the total number of all cells.
(In general: Incorporation of labelled thymidine or its analogues reports DNA synthesis.)

Data set [4] has as its system DU-145 cells. The experiment in a line: TUNEL detection of apoptosis, DU-145. Conditions: IC50 concentration, control 0.0 ± 0.0. The procedure:
TdT-Mediated dUTP nick end labeling (TUNEL) detection of apoptosis index. For detection of apoptotic cells, the TUNEL assay was used. […] After period of treatment, the cells were washed with PBS and fixed on the slides with cold acetone-methanol (1:1, v/v) for 10 min. Apoptosis-induced nuclear DNA fragmentation was detected by terminal deoxynucleotidyl transferase-mediated UTP nick end labeling (TUNEL) technique according to the producer protocol (In Situ Cell Death Detection Kit; Roche Diagnostics, Mannheim, Germany). The cells were then washed three times in PBS and stained with 4′-6-diamidino-2-phenylindole (DAPI; 50 μg/ml; Sigma, St. Louis, Mo., USA) for 10 min in the dark. The coverslips with cells were washed in deionized water and mounted on glass slides, using the hydrophilic medium Mowiol (Calbiochem, Fremont, Calif., USA) in glycerol-PBS (1:3, v/v) for fluorescence. Cells were visualized using fluorescence microscopy and compared with control cells. TUNEL staining achieved to confirm apoptosis in all cell lines.

Setting [5] is: treated at IC50 for 6 h, control 44 ± 6.0.
[6] abbreviates: treated at IC50 for 12 h, control 52 ± 7.6.
The mark [7] stands for this setting: treated at IC50 for 24 h, control 59 ± 8.0.

One may read the IC50 as the concentration that inhibits the measured activity by half. Regarding `CC[C@@H](C(C)C)[C@@H](O)[C@H](O)[C@@H](C)[C@H]1CC[C@H]2[C@@H]3CC(=O)[C@H]4C[C@H](O)[C@H](O)C[C@]4(C)[C@H]3CC[C@]12C` [Brassinosteroid 9, 28-Homocastasterone], the IC50 was 45 ± 2.8 µM in data set [1] and 45 ± 2.3 µM in data set [2]. Besides, the “percentage of proliferating BrdU positive cells” value in data set [3] (setting [5]) turned out to be 25 ± 3.0 %; in data set [3] (setting [6]), 28 ± 4.6 %; in data set [3] (setting [7]), 27 ± 2.1 %. Further, the results for the “percentage of TUNEL positive cells” value in data set [4] (6 h), in data set [4] (12 h) and in data set [4] (24 h) were 6.0 ± 2.0 %, 7.5 ± 4.0 % and 8.0 ± 4.0 %, respectively.
In the case of `CC(C)[C@@H](C)[C@@H](O)[C@H](O)[C@@H](C)[C@H]1CC[C@H]2[C@@H]3COC(=O)[C@H]4C[C@H](O)[C@H](O)C[C@]4(C)[C@H]3CC[C@]12C` [Brassinosteroid 6, 24-Epibrassinolide], the IC50 was 65 ± 0.9 µM in data set [1] and 60 ± 3.1 µM in data set [2]. For the same compound, the “percentage of proliferating BrdU positive cells” value in data set [3] (setting [5]) stood at 36 ± 5.5%; in data set [3] (setting [6]) it was 31 ± 2.0 %; in data set [3] (setting [7]), 29 ± 4.7 %. Further, the “percentage of TUNEL positive cells” value was found to be 4.7 ± 2.5 % in data set [4] (6 h), 5.6 ± 2.0 % in data set [4] (12 h) and 5.1 ± 5.6 % in data set [4] (24 h).

These data come from patent publication US20100204460A1, “NATURAL BRASSINOSTEROIDS FOR USE FOR TREATING HYPERPROLIFERATION, TREATING PROLIFERATIVE DISEASES AND REDUCING ADVERSE EFFECTS OF STEROID DYSFUNCTION IN MAMMALS, PHARMACEUTICAL COMPOSITION AND ITS USE” (priority 2007, published 2010).
